Measured values from ChEMBL document CHEMBL3600363, “Discovery of potent, selective small molecule inhibitors of α-subtype of type III phosphatidylinositol-4-kinase (PI4KIIIα)” (Bioorg Med Chem Lett, 2015).

How the values were obtained:
[1] = molecular target: Phosphatidylinositol 4-kinase alpha (Homo sapiens, UniProt P42356); assay: Inhibition of N-terminal FLAG-tagged human full length recombinant PI4K3alpha using D-myo-phosphatidylinositol substrate and ATP incubated for 45 mins by ADP-Glo kinase Assay
[2] = molecular target: T1, Phosphatidylinositol 4,5-bisphosphate 3-kinase catalytic subunit delta isoform (Homo sapiens, UniProt O00329); assay: Inhibition of PI3Kdelta (unknown origin) pre-incubated for 20 mins before phosphatidylinositol 4, 5-bisphosphate substrate addition by kinase-glo plus luminescence assay
T1 sequence (O00329 whole entry): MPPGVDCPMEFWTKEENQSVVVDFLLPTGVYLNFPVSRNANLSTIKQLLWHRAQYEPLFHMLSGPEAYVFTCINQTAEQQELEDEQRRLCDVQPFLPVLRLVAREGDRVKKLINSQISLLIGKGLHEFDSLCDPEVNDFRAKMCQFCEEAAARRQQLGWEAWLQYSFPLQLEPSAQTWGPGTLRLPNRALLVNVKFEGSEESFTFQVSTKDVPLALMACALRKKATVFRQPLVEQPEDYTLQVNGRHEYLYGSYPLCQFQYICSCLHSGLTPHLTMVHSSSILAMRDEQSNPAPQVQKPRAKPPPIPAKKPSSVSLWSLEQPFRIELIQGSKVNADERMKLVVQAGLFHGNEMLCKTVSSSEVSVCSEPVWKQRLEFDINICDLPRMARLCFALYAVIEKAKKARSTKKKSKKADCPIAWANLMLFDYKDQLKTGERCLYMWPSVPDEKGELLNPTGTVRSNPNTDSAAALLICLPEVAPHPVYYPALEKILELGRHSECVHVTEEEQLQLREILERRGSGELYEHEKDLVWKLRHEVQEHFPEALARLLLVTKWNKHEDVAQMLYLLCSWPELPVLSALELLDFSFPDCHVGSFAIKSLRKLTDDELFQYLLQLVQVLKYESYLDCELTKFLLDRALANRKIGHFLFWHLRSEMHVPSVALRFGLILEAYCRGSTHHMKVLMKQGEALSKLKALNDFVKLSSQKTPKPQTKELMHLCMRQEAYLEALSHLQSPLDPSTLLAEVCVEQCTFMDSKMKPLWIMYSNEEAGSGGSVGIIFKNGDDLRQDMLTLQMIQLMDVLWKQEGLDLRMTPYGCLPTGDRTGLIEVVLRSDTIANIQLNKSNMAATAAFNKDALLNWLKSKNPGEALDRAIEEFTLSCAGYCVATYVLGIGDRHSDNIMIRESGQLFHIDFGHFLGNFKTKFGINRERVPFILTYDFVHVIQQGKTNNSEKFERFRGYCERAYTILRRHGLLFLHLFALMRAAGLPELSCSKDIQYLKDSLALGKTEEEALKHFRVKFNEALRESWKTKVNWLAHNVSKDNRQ

[3] = molecular target: Phosphatidylinositol 4,5-bisphosphate 3-kinase catalytic subunit alpha isoform (Homo sapiens, UniProt P42336); assay: Inhibition of PI3Kalpha (unknown origin) pre-incubated for 20 mins before phosphatidylinositol 4, 5-bisphosphate substrate addition by kinase-glo plus luminescence assay
[4] = molecular target: Phosphatidylinositol 4-kinase beta (Homo sapiens, UniProt Q9UBF8); assay: Inhibition of N-terminal GST-tagged human full length recombinant PI4K3beta expressed in Sf9 cells using D-myo-phosphatidylinositol substrate and ATP incubated for 45 mins by ADP-Glo kinase Assay
[5] = molecular target: Phosphatidylinositol 4-phosphate 5-kinase type-1 gamma (Homo sapiens, UniProt O60331); assay: Inhibition of PIP5K1C (unknown origin) using D-myo-phosphatidylinositol 4-phosphate substrate and ATP by ADP-Glo kinase Assay
[6] = molecular target: Phosphatidylinositol 4,5-bisphosphate 3-kinase catalytic subunit gamma isoform (Homo sapiens, UniProt P48736); assay: Inhibition of PI3Kgamma (unknown origin) pre-incubated for 20 mins before phosphatidylinositol 4, 5-bisphosphate substrate addition by kinase-glo plus luminescence assay
[7] = molecular target: Phosphatidylinositol 4,5-bisphosphate 3-kinase catalytic subunit beta isoform (Homo sapiens, UniProt P42338); assay: Inhibition of PI3Kbeta (unknown origin) pre-incubated for 20 mins before phosphatidylinositol 4, 5-bisphosphate substrate addition by kinase-glo plus luminescence assay
[8] = Inhibition of PI4K3alpha in mouse NIH3T3 cells co-expressing PDGFRbeta receptor assessed as inhibition of PDGF-induced IP1 accumulation incubated for 30 mins by HTRF based assay; assay type: cell-based; conditions: NIH3T3, 0.5 h

Chain of Phosphatidylinositol 4,5-bisphosphate 3-kinase catalytic subunit gamma isoform (P48736 whole entry, canonical isoform): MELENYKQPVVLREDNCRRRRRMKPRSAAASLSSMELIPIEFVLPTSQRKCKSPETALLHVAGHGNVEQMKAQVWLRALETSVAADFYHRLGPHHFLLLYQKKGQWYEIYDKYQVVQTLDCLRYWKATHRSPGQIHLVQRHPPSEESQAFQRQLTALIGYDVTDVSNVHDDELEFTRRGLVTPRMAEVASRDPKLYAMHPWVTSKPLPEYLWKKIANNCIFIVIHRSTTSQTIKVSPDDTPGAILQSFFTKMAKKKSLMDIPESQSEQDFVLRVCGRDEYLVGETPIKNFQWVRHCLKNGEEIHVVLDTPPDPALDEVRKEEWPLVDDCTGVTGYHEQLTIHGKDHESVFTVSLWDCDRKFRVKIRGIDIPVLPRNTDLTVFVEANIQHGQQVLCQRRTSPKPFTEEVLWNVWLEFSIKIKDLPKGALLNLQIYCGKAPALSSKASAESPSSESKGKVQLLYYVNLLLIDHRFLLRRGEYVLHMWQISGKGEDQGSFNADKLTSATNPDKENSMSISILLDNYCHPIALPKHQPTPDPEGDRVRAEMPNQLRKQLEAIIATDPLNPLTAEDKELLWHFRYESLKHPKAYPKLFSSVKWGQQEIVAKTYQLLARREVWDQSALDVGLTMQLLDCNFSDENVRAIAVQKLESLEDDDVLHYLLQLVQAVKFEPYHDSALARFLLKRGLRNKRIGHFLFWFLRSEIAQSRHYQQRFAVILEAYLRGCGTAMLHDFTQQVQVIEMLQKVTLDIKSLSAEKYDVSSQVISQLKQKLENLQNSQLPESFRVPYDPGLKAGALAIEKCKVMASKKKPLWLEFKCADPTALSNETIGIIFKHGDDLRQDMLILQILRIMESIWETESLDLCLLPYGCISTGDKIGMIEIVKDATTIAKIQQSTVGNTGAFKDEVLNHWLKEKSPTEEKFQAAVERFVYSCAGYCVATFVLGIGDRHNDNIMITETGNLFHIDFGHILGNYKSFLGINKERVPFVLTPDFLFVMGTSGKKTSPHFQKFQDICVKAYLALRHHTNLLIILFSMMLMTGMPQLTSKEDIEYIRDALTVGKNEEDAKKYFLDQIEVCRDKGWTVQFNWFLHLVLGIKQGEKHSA
Chain of Phosphatidylinositol 4-phosphate 5-kinase type-1 gamma (O60331 whole entry, canonical isoform): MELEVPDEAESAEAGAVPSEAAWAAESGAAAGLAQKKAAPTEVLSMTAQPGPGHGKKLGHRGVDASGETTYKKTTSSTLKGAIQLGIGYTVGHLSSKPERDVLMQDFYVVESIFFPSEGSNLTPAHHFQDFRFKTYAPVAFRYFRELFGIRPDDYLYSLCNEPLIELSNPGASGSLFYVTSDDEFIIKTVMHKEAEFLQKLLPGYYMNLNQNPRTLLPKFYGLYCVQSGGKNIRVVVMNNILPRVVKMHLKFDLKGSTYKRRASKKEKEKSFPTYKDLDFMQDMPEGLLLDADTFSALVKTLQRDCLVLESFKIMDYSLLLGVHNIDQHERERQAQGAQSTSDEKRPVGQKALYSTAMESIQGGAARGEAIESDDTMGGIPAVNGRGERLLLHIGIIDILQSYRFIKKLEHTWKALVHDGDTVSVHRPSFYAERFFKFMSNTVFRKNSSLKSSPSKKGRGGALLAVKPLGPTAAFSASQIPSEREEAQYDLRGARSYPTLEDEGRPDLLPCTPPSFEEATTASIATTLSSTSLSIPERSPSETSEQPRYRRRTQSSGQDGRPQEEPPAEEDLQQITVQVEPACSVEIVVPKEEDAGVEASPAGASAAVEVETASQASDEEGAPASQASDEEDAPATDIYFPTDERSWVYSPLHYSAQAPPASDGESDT
Chain of Phosphatidylinositol 4,5-bisphosphate 3-kinase catalytic subunit beta isoform (P42338 whole entry, canonical isoform): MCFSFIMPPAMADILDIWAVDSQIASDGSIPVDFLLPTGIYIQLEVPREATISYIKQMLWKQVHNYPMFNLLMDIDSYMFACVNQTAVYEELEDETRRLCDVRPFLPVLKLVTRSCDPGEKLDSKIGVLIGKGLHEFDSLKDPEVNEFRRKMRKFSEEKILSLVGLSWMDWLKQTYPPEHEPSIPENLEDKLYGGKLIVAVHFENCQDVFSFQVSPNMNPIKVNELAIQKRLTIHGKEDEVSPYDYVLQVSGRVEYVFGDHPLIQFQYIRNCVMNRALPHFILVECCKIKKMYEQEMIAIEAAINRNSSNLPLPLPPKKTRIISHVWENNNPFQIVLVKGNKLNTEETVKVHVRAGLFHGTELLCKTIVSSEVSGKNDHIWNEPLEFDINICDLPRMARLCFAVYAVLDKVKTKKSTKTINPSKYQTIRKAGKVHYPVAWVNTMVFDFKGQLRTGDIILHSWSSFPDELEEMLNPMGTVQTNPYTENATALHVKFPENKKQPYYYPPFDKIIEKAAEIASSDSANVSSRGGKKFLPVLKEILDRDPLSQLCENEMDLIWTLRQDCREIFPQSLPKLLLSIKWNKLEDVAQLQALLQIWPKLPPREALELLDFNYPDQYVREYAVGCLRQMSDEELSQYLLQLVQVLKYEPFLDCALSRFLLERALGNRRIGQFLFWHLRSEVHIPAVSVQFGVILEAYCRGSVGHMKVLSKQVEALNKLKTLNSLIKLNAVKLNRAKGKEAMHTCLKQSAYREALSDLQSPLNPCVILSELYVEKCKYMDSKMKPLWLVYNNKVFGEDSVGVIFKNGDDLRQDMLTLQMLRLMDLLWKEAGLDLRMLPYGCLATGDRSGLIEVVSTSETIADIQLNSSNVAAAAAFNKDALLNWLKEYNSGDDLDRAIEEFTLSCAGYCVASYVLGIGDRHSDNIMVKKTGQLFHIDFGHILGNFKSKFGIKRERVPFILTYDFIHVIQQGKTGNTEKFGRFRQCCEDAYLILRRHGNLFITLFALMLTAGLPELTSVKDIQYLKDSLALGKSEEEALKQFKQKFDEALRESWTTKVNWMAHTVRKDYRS
Chain of Phosphatidylinositol 4-kinase alpha (P42356 whole entry, canonical isoform): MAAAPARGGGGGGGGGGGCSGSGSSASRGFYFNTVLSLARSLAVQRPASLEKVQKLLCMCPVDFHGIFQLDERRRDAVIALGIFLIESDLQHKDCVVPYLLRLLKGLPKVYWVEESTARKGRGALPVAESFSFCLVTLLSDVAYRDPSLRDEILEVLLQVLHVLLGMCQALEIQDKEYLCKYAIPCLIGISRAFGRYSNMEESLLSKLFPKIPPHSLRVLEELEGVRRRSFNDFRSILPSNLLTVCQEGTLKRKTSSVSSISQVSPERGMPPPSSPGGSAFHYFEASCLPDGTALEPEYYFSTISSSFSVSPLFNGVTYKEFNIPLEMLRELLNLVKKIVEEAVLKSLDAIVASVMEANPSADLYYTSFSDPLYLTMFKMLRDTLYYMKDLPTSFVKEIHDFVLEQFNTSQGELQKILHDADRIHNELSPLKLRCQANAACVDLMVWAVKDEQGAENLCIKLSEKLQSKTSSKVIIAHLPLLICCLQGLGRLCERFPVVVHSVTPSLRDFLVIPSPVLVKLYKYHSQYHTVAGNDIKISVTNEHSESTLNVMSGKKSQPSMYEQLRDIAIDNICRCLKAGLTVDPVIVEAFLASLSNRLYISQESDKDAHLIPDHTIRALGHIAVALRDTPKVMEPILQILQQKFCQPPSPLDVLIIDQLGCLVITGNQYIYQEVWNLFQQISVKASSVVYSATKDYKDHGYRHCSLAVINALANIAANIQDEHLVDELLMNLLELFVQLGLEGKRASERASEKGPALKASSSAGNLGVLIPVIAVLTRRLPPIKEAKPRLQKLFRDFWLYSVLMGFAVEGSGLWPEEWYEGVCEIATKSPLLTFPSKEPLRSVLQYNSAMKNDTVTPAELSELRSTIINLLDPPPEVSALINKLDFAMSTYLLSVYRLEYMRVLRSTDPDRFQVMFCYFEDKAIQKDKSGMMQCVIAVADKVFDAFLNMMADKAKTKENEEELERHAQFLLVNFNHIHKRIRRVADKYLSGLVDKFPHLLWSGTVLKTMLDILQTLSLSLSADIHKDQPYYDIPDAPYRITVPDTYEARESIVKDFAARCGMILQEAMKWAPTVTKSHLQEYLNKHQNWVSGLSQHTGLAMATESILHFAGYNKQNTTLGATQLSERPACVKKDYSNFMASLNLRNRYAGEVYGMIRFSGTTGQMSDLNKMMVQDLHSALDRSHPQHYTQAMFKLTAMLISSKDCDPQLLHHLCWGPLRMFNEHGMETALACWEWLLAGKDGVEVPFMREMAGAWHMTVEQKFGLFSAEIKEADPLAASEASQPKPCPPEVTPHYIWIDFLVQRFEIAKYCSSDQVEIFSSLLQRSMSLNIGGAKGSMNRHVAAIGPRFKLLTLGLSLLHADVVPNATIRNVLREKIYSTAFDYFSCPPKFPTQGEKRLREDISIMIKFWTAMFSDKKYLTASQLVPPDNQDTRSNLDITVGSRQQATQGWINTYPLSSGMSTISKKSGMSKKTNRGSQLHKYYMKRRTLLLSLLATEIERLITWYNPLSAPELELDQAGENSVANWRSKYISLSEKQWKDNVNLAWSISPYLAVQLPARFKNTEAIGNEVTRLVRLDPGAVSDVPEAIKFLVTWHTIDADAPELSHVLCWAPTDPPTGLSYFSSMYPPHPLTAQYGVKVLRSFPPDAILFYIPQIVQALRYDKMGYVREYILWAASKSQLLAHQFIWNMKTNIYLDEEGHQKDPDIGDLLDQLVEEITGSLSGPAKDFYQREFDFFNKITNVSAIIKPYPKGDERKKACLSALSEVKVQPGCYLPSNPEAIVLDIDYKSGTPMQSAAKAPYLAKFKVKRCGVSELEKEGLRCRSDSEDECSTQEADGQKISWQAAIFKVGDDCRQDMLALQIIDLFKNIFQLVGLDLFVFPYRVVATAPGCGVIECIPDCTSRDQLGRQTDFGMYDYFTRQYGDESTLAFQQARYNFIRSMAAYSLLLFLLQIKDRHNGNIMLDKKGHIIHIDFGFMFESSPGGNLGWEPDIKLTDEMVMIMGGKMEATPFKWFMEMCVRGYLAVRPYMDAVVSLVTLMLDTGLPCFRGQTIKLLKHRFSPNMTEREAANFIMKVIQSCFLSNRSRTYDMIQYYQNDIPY

`CCOc1ccc(-c2ccc3nc(N)sc3c2)cn1` showed an IC50 [1] of 158 nM, an IC50 [2] of 3980 nM and an IC50 [3] of 1580 nM. For the same compound, the IC50 [4] was 631 nM, the IC50 [5] was greater than 100000 nM and the IC50 [6] was 2000 nM. It also gave an IC50 [7] of 6310 nM.
For `CCSc1ccc(-c2ccc3nc(N)sc3c2)cn1`, the IC50 [1] was 100 nM, the IC50 [2] was 2000 nM and the IC50 [3] was 1260 nM. For the same compound, the IC50 [4] was 631 nM, the IC50 [5] was greater than 100000 nM and the IC50 [6] was 1000 nM. It also gave an IC50 [7] of 5010 nM.
With `Nc1nc2ccc(-c3ccn(CC4CC4)c(=O)c3)cc2s1` the IC50 [1] was 6.31 nM, the IC50 [2] was 12600 nM and the IC50 [8] was 501 nM. The IC50 [3] was 6310 nM, the IC50 [4] was 1580 nM and the IC50 [5] was greater than 79400 nM. It also gave an IC50 [6] of 1580 nM and an IC50 [7] greater than 126000 nM.
`O=c1cc(-c2ccc3nc(NCC4CCOCC4)sc3c2)ccn1CC1CC1` showed an IC50 [1] of 5.01 nM, an IC50 [2] of 100000 nM and an IC50 [8] of 794 nM. The IC50 [3] was greater than 200000 nM, the IC50 [4] was 398 nM and the IC50 [5] was greater than 100000 nM. It also gave an IC50 [6] of 15800 nM and an IC50 [7] greater than 200000 nM.
With `C[C@@H](Nc1nc2ccc(-c3ccn(CC4CC4)c(=O)c3)cc2s1)C1CCOCC1` the IC50 [1] was 7.94 nM, the IC50 [2] was greater than 200000 nM and the IC50 [8] was 631 nM. The IC50 [3] was greater than 200000 nM, the IC50 [4] was 316 nM and the IC50 [5] was greater than 100000 nM. It also gave an IC50 [6] of 63100 nM and an IC50 [7] greater than 200000 nM.
`C[C@H](Nc1nc2ccc(-c3ccn(CC4CC4)c(=O)c3)cc2s1)C1CCOCC1` gave an IC50 [1] of 39.8 nM, an IC50 [2] greater than 200000 nM and an IC50 [8] of 7940 nM. The IC50 [3] was greater than 200000 nM, the IC50 [4] was 2510 nM and the IC50 [5] was 25100 nM. It also gave an IC50 [6] greater than 200000 nM and an IC50 [7] greater than 200000 nM.
With `O=c1cc(-c2ccc3nc(NCC4CCS(=O)(=O)CC4)sc3c2)ccn1CC1CC1` the IC50 [1] was 2 nM, the IC50 [2] was greater than 200000 nM and the IC50 [8] was 631 nM. The IC50 [3] was 79400 nM, the IC50 [4] was 631 nM and the IC50 [5] was greater than 100000 nM. It also gave an IC50 [6] of 50100 nM and an IC50 [7] greater than 200000 nM.
With `O=c1cc(-c2ccc3nc(NC[C@H]4CC[C@H](C(=O)O)CC4)sc3c2)ccn1CC1CC1` the IC50 [1] was 1 nM, the IC50 [2] was greater than 79400 nM and the IC50 [8] was 316 nM. The IC50 [3] was 100000 nM, the IC50 [4] was 251 nM and the IC50 [6] was 10000 nM. For the same compound, the IC50 [7] was greater than 200000 nM.
